Measurements from US20090137664A1, “SAURURUS CERNUUS COMPOUNDS THAT INHIBIT CELLULAR RESPONSES TO HYPOXIA” (priority 2003, published 2009).

Assays:
Type in all cases: cell-based
OVCAR-8 = experiment: NCI in vitro cell line screen (SRB), Ovarian Cancer OVCAR-8
Method: (§1) For exemplary purposes, an embodiment of the present invention was tested for activity with respect to certain cancer cell lines. The following Tables show results from in vitro 60-cell line antitumor testing from the US National Cancer Institute Developmental Therapeutics Program (NCI-DTP) on compound 2. The testing was in connection with the NCI's In Vitro Cell Line Screening Project (IVCLSP). Detailed information regarding the experiments and their interpretation is available from the NCI.

SF-268 = experiment: NCI in vitro cell line screen (SRB), CNS Cancer SF-268
Method: as §1

BT-549 = experiment: NCI in vitro cell line screen (SRB), Breast Cancer BT-549
Method: as §1

LOX IMVI = experiment: NCI in vitro cell line screen (SRB), Melanoma LOX IMVI
Method: as §1

UO-31 = experiment: NCI in vitro cell line screen (SRB), Renal Cancer UO-31
Method: as §1

MOLT-4 = experiment: NCI in vitro cell line screen (SRB), Leukemia MOLT-4
Method: as §1

HS 578T = experiment: NCI in vitro cell line screen (SRB), Breast Cancer HS 578T
Method: as §1

K-562 = experiment: NCI in vitro cell line screen (SRB), Leukemia K-562
Method: as §1

[1] = Homo sapiens, read-out: LC50 (the source's name)

Structure (SMILES): COc1ccc([C@@H](O)[C@@H](C)Oc2ccc([C@H]3O[C@H](c4ccc(O[C@H](C)[C@H](O)c5ccc6c(c5)OCO6)c(OC)c4)[C@H](C)[C@H]3C)cc2OC)cc1OC [Compound 2, manassantin B]
- TGI (OVCAR-8): >1.00E−4 Molar
- GI50 (OVCAR-8; Homo sapiens): 23.7 µM
- CC50 (OVCAR-8; [1]): > 100 µM
- Mean Optical Densities (OVCAR-8; Log10 Concentration −4.0 Molar): 0.873
- Percent Growth (OVCAR-8; Log10 Concentration −4.0 Molar): 46%
- Mean Optical Densities (OVCAR-8; Log10 Concentration −5.0 Molar): 0.952
- Percent Growth (OVCAR-8; Log10 Concentration −5.0 Molar): 53%
- Mean Optical Densities (OVCAR-8; Log10 Concentration −6.0 Molar): 1.298
- Percent Growth (OVCAR-8; Log10 Concentration −6.0 Molar): 82%
- Mean Optical Densities (OVCAR-8; Log10 Concentration −7.0 Molar): 1.092
- Percent Growth (OVCAR-8; Log10 Concentration −7.0 Molar): 65%
- Mean Optical Densities (OVCAR-8; Log10 Concentration −8.0 Molar): 1.311
- Percent Growth (OVCAR-8; Log10 Concentration −8.0 Molar): 83%
- TGI (SF-268): >1.00E−4 Molar
- GI50 (SF-268; Homo sapiens): 4.96 µM
- CC50 (SF-268; [1]): > 100 µM
- Mean Optical Densities (SF-268; Log10 Concentration −4.0 Molar): 0.685
- Percent Growth (SF-268; Log10 Concentration −4.0 Molar): 27%
- Mean Optical Densities (SF-268; Log10 Concentration −5.0 Molar): 0.811
- Percent Growth (SF-268; Log10 Concentration −5.0 Molar): 40%
- Mean Optical Densities (SF-268; Log10 Concentration −6.0 Molar): 1.135
- Percent Growth (SF-268; Log10 Concentration −6.0 Molar): 73%
- Mean Optical Densities (SF-268; Log10 Concentration −7.0 Molar): 1.238
- Percent Growth (SF-268; Log10 Concentration −7.0 Molar): 83%
- Mean Optical Densities (SF-268; Log10 Concentration −8.0 Molar): 1.213
- Percent Growth (SF-268; Log10 Concentration −8.0 Molar): 81%
- TGI (BT-549): 1.32E−5 Molar
- GI50 (BT-549; Homo sapiens): 1.07 µM
- CC50 (BT-549; [1]): > 100 µM
- Mean Optical Densities (BT-549; Log10 Concentration −4.0 Molar): 0.474
- Percent Growth (BT-549; Log10 Concentration −4.0 Molar): −22%
- Mean Optical Densities (BT-549; Log10 Concentration −5.0 Molar): 0.620
- Percent Growth (BT-549; Log10 Concentration −5.0 Molar): 3%
- Mean Optical Densities (BT-549; Log10 Concentration −6.0 Molar): 0.813
- Percent Growth (BT-549; Log10 Concentration −6.0 Molar): 51%
- Mean Optical Densities (BT-549; Log10 Concentration −7.0 Molar): 0.868
- Percent Growth (BT-549; Log10 Concentration −7.0 Molar): 65%
- Mean Optical Densities (BT-549; Log10 Concentration −8.0 Molar): 0.838
- Percent Growth (BT-549; Log10 Concentration −8.0 Molar): 58%
- TGI (LOX IMVI): >1.00E−4 Molar
- GI50 (LOX IMVI; Homo sapiens): 2.19 µM
- CC50 (LOX IMVI; [1]): > 100 µM
- Mean Optical Densities (LOX IMVI; Log10 Concentration −4.0 Molar): 0.353
- Percent Growth (LOX IMVI; Log10 Concentration −4.0 Molar): 12%
- Mean Optical Densities (LOX IMVI; Log10 Concentration −5.0 Molar): 0.396
- Percent Growth (LOX IMVI; Log10 Concentration −5.0 Molar): 18%
- Mean Optical Densities (LOX IMVI; Log10 Concentration −6.0 Molar): 0.703
- Percent Growth (LOX IMVI; Log10 Concentration −6.0 Molar): 66%
- Mean Optical Densities (LOX IMVI; Log10 Concentration −7.0 Molar): 0.743
- Percent Growth (LOX IMVI; Log10 Concentration −7.0 Molar): 73%
- Mean Optical Densities (LOX IMVI; Log10 Concentration −8.0 Molar): 0.778
- Percent Growth (LOX IMVI; Log10 Concentration −8.0 Molar): 78%
- TGI (UO-31): >1.00E−4 Molar
- GI50 (UO-31; Homo sapiens): 3.9 µM
- CC50 (UO-31; [1]): > 100 µM
- Mean Optical Densities (UO-31; Log10 Concentration −4.0 Molar): 0.786
- Percent Growth (UO-31; Log10 Concentration −4.0 Molar): 33%
- Mean Optical Densities (UO-31; Log10 Concentration −5.0 Molar): 0.841
- Percent Growth (UO-31; Log10 Concentration −5.0 Molar): 39%
- Mean Optical Densities (UO-31; Log10 Concentration −6.0 Molar): 1.102
- Percent Growth (UO-31; Log10 Concentration −6.0 Molar): 66%
- Mean Optical Densities (UO-31; Log10 Concentration −7.0 Molar): 1.189
- Percent Growth (UO-31; Log10 Concentration −7.0 Molar): 75%
- Mean Optical Densities (UO-31; Log10 Concentration −8.0 Molar): 1.250
- Percent Growth (UO-31; Log10 Concentration −8.0 Molar): 81%
- TGI (MOLT-4): >1.00E−4 Molar
- GI50 (MOLT-4; Homo sapiens): 44.7 µM
- LC50 (concentration killing 50% of cells) (MOLT-4; Homo sapiens): > 100 µM
- Mean Optical Densities (MOLT-4; Log10 Concentration −4.0 Molar): 0.416
- Percent Growth (MOLT-4; Log10 Concentration −4.0 Molar): 47%
- Mean Optical Densities (MOLT-4; Log10 Concentration −5.0 Molar): 0.462
- Percent Growth (MOLT-4; Log10 Concentration −5.0 Molar): 55%
- Mean Optical Densities (MOLT-4; Log10 Concentration −6.0 Molar): 0.685
- Percent Growth (MOLT-4; Log10 Concentration −6.0 Molar): 90%
- Mean Optical Densities (MOLT-4; Log10 Concentration −7.0 Molar): 0.646
- Percent Growth (MOLT-4; Log10 Concentration −7.0 Molar): 84%
- Mean Optical Densities (MOLT-4; Log10 Concentration −8.0 Molar): 0.646
- Percent Growth (MOLT-4; Log10 Concentration −8.0 Molar): 84%
- TGI (HS 578T): >1.00E−4 Molar
- GI50 (HS 578T; Homo sapiens): 10.4 µM
- CC50 (HS 578T; [1]): > 100 µM
- Mean Optical Densities (HS 578T; Log10 Concentration −4.0 Molar): 0.834
- Percent Growth (HS 578T; Log10 Concentration −4.0 Molar): 17%
- Mean Optical Densities (HS 578T; Log10 Concentration −5.0 Molar): 1.018
- Percent Growth (HS 578T; Log10 Concentration −5.0 Molar): 51%
- Mean Optical Densities (HS 578T; Log10 Concentration −6.0 Molar): 1.188
- Percent Growth (HS 578T; Log10 Concentration −6.0 Molar): 82%
- Mean Optical Densities (HS 578T; Log10 Concentration −7.0 Molar): 1.267
- Percent Growth (HS 578T; Log10 Concentration −7.0 Molar): 96%
- Mean Optical Densities (HS 578T; Log10 Concentration −8.0 Molar): 1.222
- Percent Growth (HS 578T; Log10 Concentration −8.0 Molar): 88%
- TGI (K-562): >1.00E−4 Molar
- LC50 (concentration killing 50% of cells) (K-562; Homo sapiens, K562): > 100 µM
- Mean Optical Densities (K-562; Log10 Concentration −4.0 Molar): 0.327
- Percent Growth (K-562; Log10 Concentration −4.0 Molar): 28%
- Mean Optical Densities (K-562; Log10 Concentration −5.0 Molar): 0.394
- Percent Growth (K-562; Log10 Concentration −5.0 Molar): 37%
- Mean Optical Densities (K-562; Log10 Concentration −6.0 Molar): 0.561
- Percent Growth (K-562; Log10 Concentration −6.0 Molar): 61%
- Mean Optical Densities (K-562; Log10 Concentration −7.0 Molar): 0.500
- Percent Growth (K-562; Log10 Concentration −7.0 Molar): 53%
- Mean Optical Densities (K-562; Log10 Concentration −8.0 Molar): 0.470
- Percent Growth (K-562; Log10 Concentration −8.0 Molar): 48%
